Data published in patent US20240009321A1, “IMMUNOGENIC NANOVESICLES FOR CANCER IMMUNOTHERAPY” (Arizona Board of Regents on Behalf of the University of …, priority 2020, published 2024).

Columns and labels:
[1] = Lago optical imaging of in vivo tumor delivery of Cy5.5-labeled Camptothesome-4; parameters: species or system BALB/c mice; conditions: SC CT26 tumor mice, entire monitored period (24 h)
Protocol: M ice were imaged at 0 h (prior to drug administration), and 2.5, 8, 12, and 24 h post IV injection (excitation=675 nm; emission=710 nm). At 24 h, tumors, heart, liver, spleen, lung, and kidneys were imaged using Lago optical imager. For tumor penetration investigation, tumors were frozen in an acetone/dry ice mixture prior to immunofluorescence examination. The tumor blood vessels were stained with a primary anti-CD31 (a.k.a. PECAM-1) antibody (Abcam, ab28364, 1:50), followed by an Alexa Fluor 488-conjugated secondary antibody (Abcam, ab150073, 1:400). DAPI was used to localize the cellular nuclei. Tumor tissues were cut into […] slide section by University of Arizona TACMASR and subject to the confocal laser scanning microscopy using Leica SP5-II confocal microscope (Buffalo Grove, IL) at University of Arizona Cancer Center Imaging Core.

[2] = tested on: MC38 tumor; test: Therapeutic efficacy in SC MC38 tumor bearing mice; assay type: in vivo, C57BL/6 mice; conditions: ˜300 mm^3, single IV at eq. 20 mg CPT/kg and 6.7 mg DOX-IND/kg
Protocol: In FIG. 8I-8J, 2×10^5 cells/mouse in 100 μL of serum free medium were SC injected to C57BL/6 (n=6). […] Mice survival rate was closely monitored every day.
Mouse weight was monitored every 3 days, and mice survival was monitored every day.
In FIG. 16E-161, 4×10^5 cells/mouse in 100 μL of serum free medium were SC injected to C57BU6 (n=6). Mice were IV injected once with various treatments at equivalent (eq.) 20 mg CPT/kg and 6.7 DOX-IND mg/kg when tumors grew to ˜300 mm^3. α-CD8 (BioXCell, clone 53-6.7) was IP injected at 200 μg/mouse/3 days from day 17. On day 23, mice were euthanized, and tumor tissues were isolated and equally cut into 3 pieces; one part for IHC staining for CD8, Foxp3, Calreticulin, IFN-γ, Perforin, Granzyme B, CC-3) by University of Arizona TACMASR; another two parts for Western blotting of P-S6K and RT-PCR for IL-6, respectively. Mouse weight was monitored every 3 days, and mice survival was monitored every day.
In FIG. 16K-16N, 2×10^5 cells/mouse were SC injected to C57BL/6 (n=5). When tumors reached ˜400 mm^3, mice received a single IV injection with various treatments at eq. […] Mouse weight was monitored every 3-4 days, and mice survival was monitored every day.

[3] = Blood kinetics of CPT in SC CT26 tumor bearing mice
Protocol: Following a single IV injection via tail vein of free CPT (5 mg CPT/kg, MTD) and different Camptothesomes (20 mg CPT/kg) to SC CT26 tumor bearing mice (n=3, ˜300 mm^3), blood was withdrawn at 0.083, 0.333, 1, 2.5, 8, 12 and 24 h and plasma (via plasma tube, BD Microtainer™) was collected and digested in methanol (90 μL methanol/10 μL serum) for HPLC analysis to measure the released CPT and SM-derived CPT conjugates. 24 h after drug IV administration, tumor tissues and major organs (heart, liver, spleen, lung, and kidneys) were collected, weighed, and then homogenized in acidified methanol (0.075 M HCl, 900 μL/100 mg tissues) followed by drug content determination using an established HPLC method. […] Mice were sacrificed at 2.5 h and 72 h post drug administration, the drug content in the collected tumor tissues and organs were processed, and analyzed as described above.

[4] = Pharmacokinetics in orthotopic CT26-Luc tumor-bearing mice; conditions: for AUC(0-inf) / AUC(0-t) / MRT / half-life: BALB/c, mouse, plasma, iv; for AUMC / CL / V / Vss: single IV, nanovesicles 6.7/20 mg DOX-IND/CPT/kg
Protocol: The various pharmacokinetics parameters were assessed by one-compartmental model using PKSolver software.

[5] = tested on: CT26 tumor; test: Therapeutic efficacy in SC CT26 tumor bearing mice; assay type: in vivo, BALB/c mice; conditions: single IV on day 9 (˜50 mm^3); free CPT 5 mg/kg, Camptothesomes and Onivyde 20 mg CPT or irinotecan/kg
Protocol: 1×10^5 CT26 cells in 100 μL of serum free medium were SC injected in the right flank of the BALB/c mice (n=5 or 6). […] To determine the effect on survival rate in each group (n=6). Kaplan-Meier plots were used to express animal survival rate. For the efficacy study in FIG. 8D-8H, mice were euthanized on day 21; tumors were collected and soaked in 4% paraformaldehyde overnight prior to the immune phenotypic [CD8, Granzyme B, Perforin, Cleaved caspase-3 (CC-3), and IFN-γ] analysis using IHC staining by University of Arizona TACMASR.

[6] = Maximum tolerated dose (MTD) and systemic toxicity in healthy mice; assay type: in vivo, BALB/c mice; conditions: for Animal Death / Weight Loss: n=3, 14 days
Protocol: Changes in body weight and survival of mice were followed every 1-2 days for two weeks. […] On day 14 post drug injection, blood was withdrawn by cardiac puncture and major organs (e.g., heart, liver, and kidneys) were collected. Blood was collected in lithium heparin tubes (BD Microtainer™) followed by centrifuging at 2,000×g for 10 minutes in a refrigerated centrifuge. The supernatant (serum) was sent to University of Arizona University Animal Care Pathology Services Core for a series of serum chemistry analysis. The whole blood in dipotassium EDTA tube (BD Microtainer™) were used for leukocytes, erythrocytes, and thrombocytes analysis. Mice organs from MTD dose and vehicle control groups were placed in a 4% paraformaldehyde solution for 24 h and then sent to Tissue Acquisition and Cellular/Molecular Analysis Shared Resource (TACMASR) at University of Arizona Cancer Center for histopathological analysis.

[7] = BALB/c, mouse, plasma, iv, 5 mg/kg
[8] = single IV, free CPT 5 mg/kg, Camptothesomes 20 mg CPT/kg, SC CT26 tumor mice, n=3
[9] = Blood kinetics of CPT, free CPT 5 mg/kg
[10] = Blood kinetics of IND, IND 1.7 mg/kg

Question: For “1,2-dioleoyl-sn-glycero-3-phosphoethanolamine-N-(cyanine 5.5) [Free DSPE-Cy5.5]”, which “fluorescence signal in tumors” value [1] is on record?
Answer: no observable signal in tumors

Question: Which “tumor growth in large MC38 tumors” value [2] does the source give for COc1cccc2c1C(=O)c1c(O)c3c(c(O)c1C2=O)C[C@@](O)(/C(CO)=N\NC(=O)OCCSSCCOC(=O)C(N)Cc1cn(C)c2ccccc12)C[C@@H]3O[C@H]1C[C@H](N)[C@H](O)[C@H](C)O1 (stereo in doubt) [DOX-IND, 2-((2-((1-methyl-D-tryptophyl)oxy)ethyl)disulfanyl)ethyl (Z)-2-(1-((2S,4S)-4-(((2R,4S, 5S, 6S)-4-amino-5-hydroxy-6-methyltetrahydro-2H-pyran-2-yl)oxy)-2,5,12-trihydroxy-7-methoxy-6,11-dioxo-1,2,3,4,6,11-hexahydrotetracen-2-yl)-2-hydroxyethylidene)hydrazine-1-carboxylate] here?
Answer: did not show significant tumor growth inhibition

Question: What does the source list for CC[C@@]1(O)C(=O)OCc2c1cc1n(c2=O)Cc2cc3ccccc3nc2-1 [Free CPT, (S)-(+)-camptothecin]?
Answer: half-life ([3]; BALB/c, mouse, in vivo, iv, 5 mg/kg): 4.2 ± 0.6 min; AUC(0-inf) [3, 7]: 11200 ± 1520 ng·h/mL; AUC(0-t) [3, 7]: 11000 ± 1550 ng·h/mL; MRT [3, 7]: 351 ± 24.6 min; elimination from blood / circulation half-life ([3]; SC CT26 tumor mice, single IV): rapidly eliminated from blood; AUMC [3, 8]: 65.42 ± 6.99 μg/mL · h^2; CL [3, 8]: 36.06 ± 5.00 µg/µg/mL/h; V [3, 8]: 26.44 ± 0.27 µg/µg/mL; Vss [3, 8]: 211.68 ± 38.45 µg/µg/mL; AUC(0-inf) ([4]; 5 mg/kg): 9480 ± 880 ng·h/mL; AUC(0-t) ([4]; 5 mg/kg): 9470 ± 870 ng·h/mL; MRT ([4]; 5 mg/kg): 51.6 ± 2.4 min; half-life ([4]; 5 mg/kg): 3.6 ± 0.6 min; AUMC [4, 9]: 8.12 ± 0.38 μg/mL*h2; CL [4, 9]: 10.62 ± 1.00 μg/(μg/mL)/h; V [4, 9]: 0.77 ± 0.23 μg/(μg/mL); Vss [4, 9]: 9.16 ± 1.30 μg/(μg/mL); tumor growth [5]: significant tumor reduction; Animal Death ([6]; Dose 5 mg/kg, single IV): 0/3; Weight Loss ([6]; Dose 5 mg/kg, single IV): 1.82%; Animal Death ([6]; Dose 7.5 mg/kg, single IV): 1/3; Animal Death ([6]; Dose 10 mg/kg, single IV): 1/3; Animal Death ([6]; Dose 12.5 mg/kg, single IV): 0/3; Weight Loss ([6]; Dose 12.5 mg/kg, single IV): 25.35%; systemic toxicity (serum chemistry, blood counts, H&E of organs) ([6]; at MTD, day 14 post IV injection): severe systemic toxicities; MTD at 14 days ([6]; mouse, in vivo, single IV, healthy BALB/c mice, 14 days, no death, not more than 15% weight loss): 5 mg/kg

Question: With Cn1cc(C[C@@H](N)C(=O)O)c2ccccc21 [Free IND, 1-methyl-D-tryptophan] as the compound, how does the AUC(0-inf) ([4]; 1.7 mg/kg) read?
Answer: 5670 ± 540 ng·h/mL

Question: What about the AUC(0-t) ([4]; 1.7 mg/kg) of the same compound?
Answer: 5660 ± 530 ng·h/mL

Question: And the MRT ([4]; 1.7 mg/kg)?
Answer: 24.6 ± 5.4 min

Question: What about the half-life ([4]; 1.7 mg/kg) of the same compound?
Answer: 4.8 ± 1.2 min

Question: What about the AUMC [4, 10] of the same compound?
Answer: 2.38 ± 0.71 μg/mL*h2

Question: And the CL [4, 10]?
Answer: 12.08 ± 1.17 μg/(μg/mL)/h

Question: What about the V [4, 10] of the same compound?
Answer: 4.94 ± 0.63 μg/(μg/mL)

Question: And the Vss [4, 10]?
Answer: 4.95 ± 0.63 μg/(μg/mL)
